Results: patent publication US20250136577A1, “HETEROCYCLIC DERIVATIVES AS MALT1 INHIBITORS” (C4X Discovery Limited, priority 2022, published 2025)

Key:
[1] = test system: IL-2 release from stimulated Jurkat cells; assay: Human IL-2 Release Phenotypic Assay (Assay 3); type: cell-based; settings: Jurkat cells (clone E6-1), 200 ng/ml PMA + 300 ng/ml ionomycin, IL-2 in supernatant by ELISA
Experimental: Human IL-2 Release Phenotypic Assay (Assay 3)
This assay measured the inhibition by MALT1 inhibitors of the IL-2 release from stimulated Jurkat cells, a human immortalized T lymphocyte cell line. IL-2 production from Jurkat cells is regulated by activation of NFκB signalling, which is in turn regulated by MALT1 protease activity.
Jurkat cells (clone E6-1, ATCC) were cultured in RPMI1640 supplemented with 10% (v/v) FBS and 1% (v/v) penicillin/streptomycin (100× liquid stocks). Cells were seeded in 96-well white tissue culture-treated plates (Perkin Elmer) at 50 000 cells/well and incubated overnight at 37° C., 5% CO2. Test compounds in DMSO at half-log dilutions were added to the cells and incubated for 30 mins. Final DMSO concentration was 0.5%. Cells were then stimulated with 200 ng/ml PMA+300 ng/ml ionomycin and incubated for 48 hours. IL-2 present in the supernatant was then measured by ELISA according to the kit instructions (ELISA MAX Deluxe Set Human IL-2, BioLegend). % inhibition was calculated for each well, using 30 μM of the commercially available MALT1 inhibitor, MLT-748, for 100% inhibition controls and no compound for 0% inhibition controls. IC50 values were calculated using GraphPad Prism using 4-parameter non-linear regression curve fit.

FL hMALT1 enzyme = FL hMALT1 enzyme (Homo sapiens (Human), UniProt Q9UDY8); assay: MALT1 Protease Assay 2 (Assay 2), higher sensitivity, cleavage of fluorogenic tetrapeptide substrate; type: biochemical; settings: FL hMALT1 1-10 nM, Ac-LVSR-AMC 100 μM, 0.7 M sodium citrate, 30 min preincubation, 60 min read
Experimental: MALT1 Protease Assay 2 (Assay 2)
(§1) MALT1 protease activity was assessed in vitro by measuring the cleavage of a fluorogenic tetrapeptide substrate.
For a higher sensitivity assay, commercially available FL hMALT1 enzyme (Abcam, 1-10 nM) was incubated with substrate (Ac-LVSR-AMC, 100 μM) in reaction buffer comprising 50 mM HEPES (pH7.0), 25 mM KCl, 0.1% (v/v) CHAPS, 1 mM TCEP and 0.7 M sodium citrate.
(§2) Test compounds dissolved in DMSO were dispensed into assay plates (384-well, black, shallow ProxiPlates). 7 μl enzyme solution was added and incubated at room temperature for 30 minutes to allow compound binding to occur. 2 μl substrate solution was then added and the fluorescence (excitation 360 nm, emission 460 nm) read every 15 minutes using a suitable plate reader. Final assay DMSO concentration was 1%. Linearity over 60 minutes was confirmed, and assay signal was calculated by subtracting raw counts at time 0 from those at 60 minutes. % inhibition was calculated for each well, using no enzyme for 100% inhibition controls and no compound for 0% inhibition controls. IC50 values were calculated using GraphPad Prism using a 4-parameter non-linear regression curve fit.

[2] = target: MALT1-GS-Ub (6-His-hMALT-1 residues 339-715 fused to ubiquitin) (Homo sapiens (Human), UniProt Q9UDY8); assay: MALT1 Protease Assay 1 (Assay 1), cleavage of fluorogenic tetrapeptide substrate; type: biochemical; settings: MALT1-GS-Ub 300-600 nM, Ac-LVSR-AMC 100 μM, 30 min preincubation, 60 min read
Experimental: MALT1 Protease Assay 1 (Assay 1)
as §1
A protein (MALT1-GS-Ub) comprising 6-His-hMALT-1 (residues 339-715), fused to ubiquitin with an 8× GGS linker, was expressed in E. coli, and purified using chitin resin to remove contaminants followed by affinity chromatography purification and size-exclusion chromatography, according to standard protocols.
Briefly, MALT1-GS-Ub (300-600 nM) was incubated with substrate (Ac-LVSR-AMC, 100 μM) in reaction buffer comprising 50 mM HEPES (pH7.0), 25 mM KCl, 0.1% (v/v) CHAPS and 1 mM TCEP.
as §2

Sequence of FL hMALT1 enzyme (Q9UDY8 whole entry): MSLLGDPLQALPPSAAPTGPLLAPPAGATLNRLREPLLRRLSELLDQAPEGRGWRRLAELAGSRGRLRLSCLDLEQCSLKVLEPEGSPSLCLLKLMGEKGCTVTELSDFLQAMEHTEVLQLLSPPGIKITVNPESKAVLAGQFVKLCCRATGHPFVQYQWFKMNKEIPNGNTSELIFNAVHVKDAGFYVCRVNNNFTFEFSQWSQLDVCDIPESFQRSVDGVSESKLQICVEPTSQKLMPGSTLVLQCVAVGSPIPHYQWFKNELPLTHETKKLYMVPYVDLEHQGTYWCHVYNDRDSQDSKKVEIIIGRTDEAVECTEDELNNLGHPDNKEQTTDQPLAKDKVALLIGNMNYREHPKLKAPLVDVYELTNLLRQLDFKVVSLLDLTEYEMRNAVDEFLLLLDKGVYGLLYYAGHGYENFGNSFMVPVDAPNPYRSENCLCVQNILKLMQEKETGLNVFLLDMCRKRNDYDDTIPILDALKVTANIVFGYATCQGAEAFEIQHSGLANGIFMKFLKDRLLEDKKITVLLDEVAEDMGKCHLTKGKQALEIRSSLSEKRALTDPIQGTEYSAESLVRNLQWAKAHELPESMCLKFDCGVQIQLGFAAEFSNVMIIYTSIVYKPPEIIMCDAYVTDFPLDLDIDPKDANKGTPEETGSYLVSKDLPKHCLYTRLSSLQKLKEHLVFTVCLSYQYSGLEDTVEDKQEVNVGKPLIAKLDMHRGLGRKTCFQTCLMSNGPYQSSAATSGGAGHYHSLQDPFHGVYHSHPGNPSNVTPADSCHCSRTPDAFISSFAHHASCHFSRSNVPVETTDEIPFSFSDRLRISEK
Sequence of MALT1-GS-Ub (6-His-hMALT-1 residues 339-715 fused to ubiquitin) (Q9UDY8 other isoform, or with tags, fused parts or gaps): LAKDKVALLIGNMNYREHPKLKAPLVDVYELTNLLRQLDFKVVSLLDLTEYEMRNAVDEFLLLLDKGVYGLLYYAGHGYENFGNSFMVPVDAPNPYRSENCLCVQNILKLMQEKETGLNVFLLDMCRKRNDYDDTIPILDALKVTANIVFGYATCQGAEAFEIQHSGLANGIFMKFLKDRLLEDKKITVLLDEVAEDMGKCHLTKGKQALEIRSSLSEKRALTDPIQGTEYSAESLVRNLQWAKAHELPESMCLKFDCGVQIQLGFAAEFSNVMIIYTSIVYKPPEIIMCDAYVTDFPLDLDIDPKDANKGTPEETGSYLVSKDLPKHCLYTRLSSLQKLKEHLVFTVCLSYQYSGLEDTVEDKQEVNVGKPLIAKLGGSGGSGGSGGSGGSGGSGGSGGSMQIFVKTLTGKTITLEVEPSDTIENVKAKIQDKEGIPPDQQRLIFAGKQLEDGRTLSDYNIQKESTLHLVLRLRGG

IC50 ([1]; Homo sapiens, Jurkat, 48 h) [nM]	IC50 (FL hMALT1 enzyme) [nM]	IC50 ([1]; 48 hours) [nM]	SMILES	IC50 [2] [nM]
286	21		Cc1ncc2c(c1C#N)OC(C(F)(F)F)CN2C(=O)Nc1cnc(OC(F)F)c(Cl)c1 (single isomer, unassigned) [Example 61, N-(5-Chloro-6-(difluoromethoxy)pyridin-3-yl)-8-cyano-7-methyl-2-(trifluoromethyl)-2,3-dihydro-4H-pyrido[4,3-b][1,4]oxazine-4-carboxamide]	
	80	> 10000	CC(C)C1CN(C(=O)Nc2cnc(-n3nccn3)c(Cl)c2)c2cncc(Br)c2O1 (single isomer, unassigned) [Example 48, 8-Bromo-N-(5-chloro-6-(2H-1,2,3-triazol-2-yl)pyridin-3-yl)-2-isopropyl-2,3-dihydro-4H-pyrido[4,3-b][1,4]oxazine-4-carboxamide]	
1200	120		CC1(C)CN(C(=O)Nc2cnc(-n3nccn3)c(Cl)c2)c2cncc(Cl)c2O1 [Example 32, 8-Chloro-N-(5-chloro-6-(2H-1,2,3-triazol-2-yl)pyridin-3-yl)-2,2-dimethyl-2,3-dihydro-4H-pyrido[4,3-b][1,4]oxazine-4-carboxamide]	1800
	120	4460	CC(C)C1CN(C(=O)Nc2cnc(-n3nccn3)c(Cl)c2)c2cncc(Br)c2O1 (single isomer, unassigned) [Example 49, 8-Bromo-N-(5-chloro-6-(2H-1,2,3-triazol-2-yl)pyridin-3-yl)-2-isopropyl-2,3-dihydro-4H-pyrido[4,3-b][1,4]oxazine-4-carboxamide]	
> 10000	> 3000		O=C(Nc1cnc(-n2nccn2)c(Cl)c1)N1CCOc2c(Br)cncc21 [Example 21, 8-Bromo-N-(5-chloro-6-(2H-1,2,3-triazol-2-yl)pyridin-3-yl)-2,3-dihydro-4H-pyrido[4,3-b][1,4]oxazine-4-carboxamide]	2300
300	60		O=C(Nc1cnc(-n2nccn2)c(Cl)c1)N1CC(C(F)(F)F)Oc2c(Br)cncc21 (single isomer, unassigned) [Example 40, 8-Bromo-N-(5-chloro-6-(2H-1,2,3-triazol-2-yl)pyridin-3-yl)-2-(trifluoromethyl)-2,3-dihydro-4H-pyrido[4,3-b][1,4]oxazine-4-carboxamide]	340
1400	60		Cc1ncc2c(c1Br)OC(C(F)(F)F)CN2C(=O)Nc1cnc(-n2nccn2)c(Cl)c1 (single isomer, unassigned) [Example 43, 8-Bromo-N-(5-chloro-6-(2H-1,2,3-triazol-2-yl)pyridin-3-yl)-7-methyl-2-(trifluoromethyl)-2,3-dihydro-4H-pyrido[4,3-b][1,4]oxazine-4-carboxamide]	
> 10000	1400		Cc1ncc2c(c1Br)OCCN2C(=O)Nc1cnc(-n2nccn2)c(Cl)c1 [Example 41, 8-Bromo-N-(5-chloro-6-(2H-1,2,3-triazol-2-yl)pyridin-3-yl)-7-methyl-2,3-dihydro-4H-pyrido[4,3-b][1,4]oxazine-4-carboxamide]	3900
1700	2200		Nc1ncc2c(c1Br)OCCN2C(=O)Nc1cnc(-n2nccn2)c(Cl)c1 [Example 36, 7-Amino-8-bromo-N-(5-chloro-6-(2H-1,2,3-triazol-2-yl)pyridin-3-yl)-2,3-dihydro-4H-pyrido[4.3-b][1.4]oxazine-4-carboxamide]	
420	1500		CC1CN(C(=O)Nc2cnc(-n3nccn3)c(Cl)c2)c2cncc(Br)c2O1 (stereo not drawn) [Example 30, 8-Bromo-N-(5-chloro-6-(2H-1,2,3-triazol-2-yl)pyridin-3-yl)-2-methyl-2,3-dihydro-4H-pyrido[4,3-b][1,4]oxazine-4-carboxamide]	1500
350	60		N#Cc1cncc2c1OC(C(F)(F)F)CN2C(=O)Nc1cnc(-n2nccn2)c(Cl)c1 (single isomer, unassigned) [Example 55, N-(5-Chloro-6-(2H-1,2,3-triazol-2-yl)pyridin-3-yl)-8-cyano-2-(trifluoromethyl)-2,3-dihydro-4H-pyrido[4,3-b][1,4]oxazine-4-carboxamide]	
	130	> 10000	CCC1CN(C(=O)Nc2cnc(-n3nccn3)c(Cl)c2)c2cncc(Br)c2O1 (single isomer, unassigned) [Example 47, 8-Bromo-N-(5-chloro-6-(2H-1,2,3-triazol-2-yl)pyridin-3-yl)-2-ethyl-2,3-dihydro-4H-pyrido[4,3-b][1,4]oxazine-4-carboxamide]	
390	60		Cc1ncc2c(c1C#N)OC(C(F)(F)F)CN2C(=O)Nc1cnc(-n2nccn2)c(Cl)c1 (single isomer, unassigned) [Example 53, N-(5-Chloro-6-(2H-1,2,3-triazol-2-yl)pyridin-3-yl)-8-cyano-7-methyl-2-(trifluoromethyl)-2,3-dihydro-4H-pyrido[4,3-b][1,4]oxazine-4-carboxamide]	
	30	740	CCC1CN(C(=O)Nc2cnc(-n3nccn3)c(Cl)c2)c2cncc(Br)c2O1 (single isomer, unassigned) [Example 46, 8-Bromo-N-(5-chloro-6-(2H-1,2,3-triazol-2-yl)pyridin-3-yl)-2-ethyl-2,3-dihydro-4H-pyrido[4,3-b][1,4]oxazine-4-carboxamide]	

SMILES	IC50 ([1]; Homo sapiens, Jurkat, 48 h) [nM]	IC50 (FL hMALT1 enzyme) [nM]	IC50 ([1]; 48 hours) [nM]	IC50 [2] [nM]
N#CC1CN(C(=O)Nc2cnc(-n3nccn3)c(C(F)(F)F)c2)c2cccc(Br)c2O1 (stereo not drawn) [Example 6, N-(6-(2H-1,2,3-Triazol-2-yl)-5-(trifluoromethyl)pyridin-3-yl)-8-bromo-2-cyano-2,3-dihydro-4H-benzo[b][1,4]oxazine-4-carboxamide]	2100	100		700
CC[C@@H]1CN(C(=O)Nc2cnc(-n3nccn3)c(Cl)c2)c2cncc(Br)c2N1C [Example 34, (R)-8-Bromo-N-(5-chloro-6-(2H-1,2,3-triazol-2-yl)pyridin-3-yl)-2-ethyl-1-methyl-2,3-dihydropyrido[3,4-b]pyrazine-4 (1H)-carboxamide]	290	50		970
C[C@@H]1CN(C(=O)Nc2cnc(-n3nccn3)c(Cl)c2)c2cncc(Br)c2N1C [Example 26, (R)-8-Bromo-N-(5-chloro-6-(2H-1,2,3-triazol-2-yl)pyridin-3-yl)-1.2-dimethyl-2,3-dihydropyrido[3,4-b]pyrazine-4 (1H)-carboxamide]	1300	110		800
CC(C)[C@@H]1CN(C(=O)Nc2cnc(-n3nccn3)c(Cl)c2)c2cncc(Br)c2N1C [Example 35, (R)-8-Bromo-N-(5-chloro-6-(2H-1,2,3-triazol-2-yl)pyridin-3-yl)-2-isopropyl-1-methyl-2,3-dihydropyrido[3,4-b]pyrazine-4 (1H)-carboxamide]	170	60		730
CC1(C)CN(C(=O)Nc2cnc(-n3nccn3)c(C(F)(F)F)c2)c2cccc(Br)c2O1 [Example 23, N-(6-(2H-1,2,3-Triazol-2-yl)-5-(trifluoromethyl)pyridin-3-yl)-8-bromo-2,2-dimethyl-2,3-dihydro-4H-benzo[b][1,4]oxazine-4-carboxamide]	290	110		860
